{"source": "patent US20200399392A1", "about": "“INHIBITORS OF PLA2-G1B COFACTORS FOR TREATING CANCER” (priority 2018, published 2020)", "system": "gC1qR KO Jurkat E6.1 T cells", "assay": "PLA2-GIB enzymatic assay on [3H] arachidonic acid labelled gC1qR KO Jurkat E6.1 T cells", "type": "cell-based, human", "conditions": "gC1qR KO cells (1D5 or 2G9), pretreatment 21 h, FIG. 13", "excerpt": "Generation of gC1qR KO Jurkat E6.1 T cells—The global strategy for the development of Jurkat cells deprived of C1QBP is based on the design of a targeting vector permitting bi-allelic inactivation of C1QBP gene via homologous recombination. Human C1QBP homologous regions isogenic with the Jurkat E6.1 T cell line (ECACC 88042803) has been used. The targeting vector has been synthetized by Genewiz and cloned into the pUC57-Amp vector. […] The NeoR cassette was cloned using BamHI/NotI restriction sites. The targeting vector has been verified by DNA restriction digestion cut with selected restriction enzymes (APaL1, Drd1, Pvu1, Pvu2, BamH1/NotI, Not1/NcoI, NEB) and target region sequencing. The DNA primers corresponding to C1QBP sgRNA (1828-Crispr_1A: CACC-[…] and 1828-Crispr_1B: AAAC-[…]) were hybridized and cloned (Quick Ligase-New England Biolabs, NEB) into the pX330 plasmid (Addgene, 42230; Feng Zhang, MIT) using BbsI restriction site (NEB).\nThe Jurkat cells (5×10^6) were resuspended in 100 μL of Opti-MEM and 7 μg of CRISPR/Cas9 plasmid and 2.5 μg of targeting vector were added. The cells were electroporated with a Nepa21 electroporator. After cell selection in G418 selective medium, the Jurkat cell clones were prescreened by PCR genotyping. Independent cell clones knocked-out for C1QBP gene were amplified and verified by PCR genotyping and target region sequencing. […]", "data": [{"substance": "NH2-PWNASWSNKSLDDIW—COOH (H-PWNASWSNKSLDDIW-OH) [PEP3]", "values": [{"measurement": "PLA2-GIB activity vs scrambled PEP3", "value": "not"}]}]}
